Results taken from PubChem BioAssay (NCI).
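The compound was tested at five concentrations on cells cultured in 96-well plates, with a 48-hour exposure period. Here, GI50 denotes the concentration required for 50% inhibition of growth. The concentration for full growth arrest is given as TGI.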

Columns and labels:
Assay in all cases: growth of human tumour cells (NCI), 48 h
BT-549 breast = tested on: BT-549 breast
SF-295 CNS = tested on: SF-295 CNS
SK-MEL-5 melanoma = tested on: SK-MEL-5 melanoma
MOLT-4 leukemia = tested on: MOLT-4 leukemia
MCF7 breast = tested on: MCF7 breast
MDA-MB-231 breast = tested on: MDA-MB-231 breast
OVCAR-4 ovarian = tested on: OVCAR-4 ovarian
DU-145 prostate = tested on: DU-145 prostate
NCI-H23 lung = tested on: NCI-H23 lung
SK-OV-3 ovarian = tested on: SK-OV-3 ovarian
OVCAR-3 ovarian = tested on: OVCAR-3 ovarian
TK-10 renal = tested on: TK-10 renal
HT29 colon = tested on: HT29 colon
SNB-75 CNS = tested on: SNB-75 CNS
MALME-3M melanoma = tested on: MALME-3M melanoma
CAKI-1 renal = tested on: CAKI-1 renal
PC-3 prostate = tested on: PC-3 prostate
RXF 393 renal = tested on: RXF 393 renal
RPMI-8226 leukemia = tested on: RPMI-8226 leukemia
SR leukemia = tested on: SR leukemia
IGROV1 ovarian = tested on: IGROV1 ovarian
COLO 205 colon = tested on: COLO 205 colon
M14 melanoma = tested on: M14 melanoma
U251 CNS = tested on: U251 CNS
UO-31 renal = tested on: UO-31 renal
SN12C renal = tested on: SN12C renal
MDA-MB-435 = tested on: MDA-MB-435
K-562 leukemia = tested on: K-562 leukemia
SF-268 CNS = tested on: SF-268 CNS
EKVX NSCLC = tested on: EKVX NSCLC
CCRF-CEM leukemia = tested on: CCRF-CEM leukemia
A549 NSCLC = tested on: A549 NSCLC
HCT-15 colon = tested on: HCT-15 colon
HS 578T breast = tested on: HS 578T breast
NCI/ADR-RES ovarian = tested on: NCI/ADR-RES ovarian
786-0 renal = tested on: 786-0 renal
HL-60(TB) leukemia = tested on: HL-60(TB) leukemia
T-47D breast = tested on: T-47D breast
UACC-62 melanoma = tested on: UACC-62 melanoma
NCI-H522 lung = tested on: NCI-H522 lung
SF-539 CNS = tested on: SF-539 CNS
HOP-62 NSCLC = tested on: HOP-62 NSCLC
SNB-19 CNS = tested on: SNB-19 CNS
SK-MEL-2 melanoma = tested on: SK-MEL-2 melanoma
OVCAR-8 ovarian = tested on: OVCAR-8 ovarian
SK-MEL-28 melanoma = tested on: SK-MEL-28 melanoma
LOX IMVI melanoma = tested on: LOX IMVI melanoma
ACHN renal = tested on: ACHN renal
NCI-H226 lung = tested on: NCI-H226 lung
OVCAR-5 ovarian = tested on: OVCAR-5 ovarian
HOP-92 NSCLC = tested on: HOP-92 NSCLC
KM12 colon = tested on: KM12 colon
NCI-H460 lung = tested on: NCI-H460 lung
UACC-257 melanoma = tested on: UACC-257 melanoma
SW-620 colon = tested on: SW-620 colon

## COC(=O)C1=C(C(=O)OC)SC(=C(Cl)C(=S)Oc2ccccc2N)S1
BT-549 breast
  GI50: 10.2 µM
  TGI: 21.6 µM
SF-295 CNS
  GI50: 13.7 µM
  TGI: 41.1 µM
SK-MEL-5 melanoma
  GI50: 8.43 µM
  TGI: 17.7 µM
MOLT-4 leukemia
  GI50: 25 µM
  TGI: > 50 µM
MCF7 breast
  GI50: 5.95 µM
  TGI: 17.3 µM
MDA-MB-231 breast
  GI50: 28 µM
  TGI: > 50 µM
OVCAR-4 ovarian
  GI50: > 50 µM
  TGI: > 50 µM
DU-145 prostate
  GI50: 19.8 µM
  TGI: > 50 µM
NCI-H23 lung
  GI50: 10.6 µM
  TGI: > 50 µM
SK-OV-3 ovarian
  GI50: 22.3 µM
  TGI: > 50 µM
OVCAR-3 ovarian
  GI50: 10.8 µM
  TGI: 36.1 µM
TK-10 renal
  GI50: 49.5 µM
  TGI: > 50 µM
HT29 colon
  GI50: 33.7 µM
  TGI: > 50 µM
SNB-75 CNS
  GI50: 35.1 µM
  TGI: > 50 µM
MALME-3M melanoma
  GI50: 18.6 µM
  TGI: > 50 µM
CAKI-1 renal
  GI50: 13.5 µM
  TGI: 40.7 µM
PC-3 prostate
  GI50: 17.9 µM
  TGI: > 50 µM
RXF 393 renal
  GI50: 8.38 µM
  TGI: > 50 µM
RPMI-8226 leukemia
  GI50: 17.9 µM
  TGI: > 50 µM
SR leukemia
  GI50: 12.9 µM
  TGI: 35 µM
IGROV1 ovarian
  GI50: 3.79 µM
  TGI: 14.5 µM
COLO 205 colon
  GI50: 26.7 µM
  TGI: > 50 µM
M14 melanoma
  GI50: 10.8 µM
  TGI: 29.4 µM
U251 CNS
  GI50: 16.2 µM
  TGI: > 50 µM
UO-31 renal
  GI50: 10.6 µM
  TGI: 35.6 µM
SN12C renal
  GI50: 18.2 µM
  TGI: > 50 µM
MDA-MB-435
  GI50: 8.94 µM
  TGI: 17 µM
K-562 leukemia
  GI50: 15.8 µM
  TGI: > 50 µM
SF-268 CNS
  GI50: 15.9 µM
  TGI: > 50 µM
EKVX NSCLC
  GI50: 46.5 µM
  TGI: > 50 µM
CCRF-CEM leukemia
  GI50: > 50 µM
  TGI: > 50 µM
A549 NSCLC
  GI50: 18.1 µM
  TGI: > 50 µM
HCT-15 colon
  GI50: 16.4 µM
  TGI: > 50 µM
HS 578T breast
  GI50: 15.6 µM
  TGI: 34.2 µM
NCI/ADR-RES ovarian
  GI50: 13.9 µM
  TGI: 37.1 µM
786-0 renal
  GI50: 12.3 µM
  TGI: > 50 µM
HL-60(TB) leukemia
  GI50: 14.5 µM
  TGI: > 50 µM
T-47D breast
  GI50: > 50 µM
  TGI: > 50 µM
UACC-62 melanoma
  GI50: 16.5 µM
  TGI: > 50 µM
NCI-H522 lung
  GI50: 10.4 µM
  TGI: 31.3 µM
SF-539 CNS
  GI50: 13.4 µM
  TGI: 35.5 µM
HOP-62 NSCLC
  GI50: 20.1 µM
  TGI: 42.1 µM
SNB-19 CNS
  GI50: 25.8 µM
  TGI: > 50 µM
SK-MEL-2 melanoma
  GI50: 10.2 µM
  TGI: 26.1 µM
OVCAR-8 ovarian
  GI50: 18.7 µM
  TGI: > 50 µM
SK-MEL-28 melanoma
  GI50: > 50 µM
  TGI: > 50 µM
LOX IMVI melanoma
  GI50: 9.16 µM
  TGI: 22.3 µM
ACHN renal
  GI50: 15 µM
  TGI: > 50 µM
NCI-H226 lung
  GI50: 20.5 µM
  TGI: > 50 µM
OVCAR-5 ovarian
  GI50: 37 µM
  TGI: > 50 µM
HOP-92 NSCLC
  GI50: 37.3 µM
  TGI: > 50 µM
KM12 colon
  GI50: > 50 µM
  TGI: > 50 µM
NCI-H460 lung
  GI50: 13.4 µM
  TGI: > 50 µM
UACC-257 melanoma
  GI50: 9.44 µM
  TGI: 18.8 µM
SW-620 colon
  GI50: 24.2 µM
  TGI: > 50 µM
